Patent US10894817B2, “Fatty acid modified urocortin-2 analogs for the treatment of diabetes and chronic kidney disease” (priority 2016, dated 2021)
Where “and” joins values, the source holds several entries; their conditions need not be identical. Equal entries are not always repeated. Blank lines part the entries; values can stand above or below the compound they belong to. Starred links: 1 amine or outer side, 2 acyl side, 3 side chain; linkers in the order of their positions; H or OH if unused. Non-standard residues stand in square brackets, D forms with d. Residues, ends and D or L forms follow the SMILES beside them. Groups on a side chain read outwards from the residue. *: point of attachment. C20 diacid = O=C(O)CCCCCCCCCCCCCCCCCCC(=O)*; C18 diacid = O=C(O)CCCCCCCCCCCCCCCCC(=O)*; γGlu = O=C(O)[C@H](CCC(=O)[*:2])N[*:1]; NMeI = CC[C@H](C)[C@H](NC)C(=O)O; AEEA = NCCOCCOCC(=O)O

What was measured:
[1] = Pharmacokinetics, single subcutaneous dose, rats; conditions: for half-life: T1/2, male Sprague Dawley rats
human CRHR1 = molecular target: T1, human CRHR1 (Homo sapiens, UniProt P34998); assay: human CRHR1 cell-based cAMP assay (Y79 cells); conditions: Y79 cells with endogenous human CRHR1, mean ± SEM of runs, read-out: hCRHR1 Average EC50
T1 construct: which expresses endogenous human CRHR1; host or cells: Y79 human retinoblastoma cells
T1 sequence (P34998 24-415): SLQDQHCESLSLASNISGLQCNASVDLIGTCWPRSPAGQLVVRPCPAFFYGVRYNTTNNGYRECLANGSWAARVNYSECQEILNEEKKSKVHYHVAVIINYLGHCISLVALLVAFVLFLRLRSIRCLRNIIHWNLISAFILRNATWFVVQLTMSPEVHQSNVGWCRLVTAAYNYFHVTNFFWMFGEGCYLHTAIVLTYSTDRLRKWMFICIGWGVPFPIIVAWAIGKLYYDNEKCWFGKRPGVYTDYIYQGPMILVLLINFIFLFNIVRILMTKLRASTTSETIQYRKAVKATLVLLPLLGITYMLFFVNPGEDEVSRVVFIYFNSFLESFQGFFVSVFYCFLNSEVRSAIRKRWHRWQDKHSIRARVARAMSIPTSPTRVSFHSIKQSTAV
Method: CRHR agonistic activity is measured in a cell-based cAMP assay. Serial dilutions of the test peptides are made in assay buffer containing Hank's Balanced Salt Solution (HBSS, without phenol red) supplemented with 20 mM HEPES and 0.05% lactalbumin enzymatic hydrolysate (LAH) (“assay buffer”). The highest concentration that is used starts from 1 μM in the human CRHR2b, whereas 100 μM starting concentration is used in the human CRHR1 assay. A one to three dilution of the test peptides is used in both assays.
The human Retinoblastoma cell line Y79 (ATCC #HTB-18), which expresses endogenous human CRHR1, is used in the human CRHR1 assay. The cells are grown in RPMI 1640 (Hyclone, #SH30255) containing 20% fetal bovine serum and 10 mM HEPES, in suspension culture. Cells are centrifuged to remove the culture media and washed once in HBSS supplemented with 20 mM HEPES. The cells are resuspended in the assay buffer and 20,000 cells are used per treatment in the human CRHR1 assay.
The cells are dispensed into Costar 96-well black polystyrene half area EIA/RIA plates (Corning Incorporated, Corning, N.Y.) followed by the addition of the diluted peptides, each at a volume of 20 μL. The agonist induced cAMP levels are detected using a HTRF cAMP Dynamic 2 kit (CisBio, Bedford, Mass.). After incubation at 37° C. for 30 min, the assay is stopped by cell lysis via the addition of 20 μL of d2-labeled cAMP and followed by 20 μL of cryptate-labeled anti-cAMP antibody, as described by the manufacturer. Cellular cAMP (as a result of agonist stimulation) competes with the d2-labeled cAMP for binding to the antibody. HTRF detection is performed on an Envision plate reader (Perkin Elmer Life and Analytical Sciences, Waltham, Mass.) by measuring ratiometric emission at 620 and 665 nm after excitation at 320 nm.
The data are converted to picomoles of cAMP using a standard curve obtained from the same assay performed with varying concentrations of unlabeled cAMP. Percent of the maximum activation of the cells is calculated using converted picomole cAMP data by comparing to the amount of cAMP produced by 1 μM human UCN2 for the human CRHR2b or 1 μM human UCN1 for the human CRHR1 assay. The data are analyzed using a Curve Fitting Tool to calculate ED50. Numeric values shown below in Table 1 represent the mean of multiple runs (number of runs shown in parentheses) following the mean value±SEM.

[2] = Pharmacokinetics, single subcutaneous dose, mice; conditions: sc
[3] = Pharmacokinetics, single subcutaneous dose, monkeys; conditions: for half-life: T1/2, male Cynomolgus monkeys
Method: Plasma concentrations of compounds were determined by LC/MS methods. Each method measured the intact compound; peptide plus linked time extension. For each assay, the compound and an analog, used as an internal standard (IS), were extracted from 100% mouse, rat or monkey plasma (25 μl) using acetonitrile. Two distinct layers were formed upon centrifugation with the compound and the IS located in the supernatant layer. An aliquot of the supernatant (80 μl) was transferred to a Thermo Protein Precipitation Plate with water (150 μl) and formic acid (25 μl) followed by mixing. A final 31% acetonitrile in 10% formic acid sample (10 μl) was loaded onto a Supelco Analytical Discovery BIO Wide Pore C5-3 column (5 cm×1 mm, 3 μm). The column effluent was directed into a Thermo Q-Exactive mass spectrometer for detection and quantitation.
Male Cynomolgus monkeys were administered a single subcutaneous dose or intravenous dose (96.4 nmol/kg) of a compound described herein in 20 mM Tris-HCl Buffer (pH 7) at a volume of 1 mL/kg. Blood was collected from each animal at 2, 6, 24, 48, 72, 96, 168, 240, 336, 408, and 504 hours postdose for pharmacokinetic characterization.
Male Cynomolgus monkeys were also administered a single subcutaneous dose (50 nmol/kg) of a compound described herein in 20 mM Tris-HCl Buffer (pH 8) at a volume of 0.26 mL/kg. Blood was collected from each animal at 3, 6, 12, 24, 48, 72, 96, 120, 168, 192, 240, 336, 408, and 504 hours postdose for pharmacokinetic characterization.

[4] = male Sprague Dawley rats, single 50 nmol/kg s.c., individual animal
[5] = male Sprague Dawley rats, single 150 nmol/kg s.c., individual animal
[6] = male, Sprague Dawley, rat, plasma, sc, 50 nmol/kg
[7] = male, Sprague Dawley, rat, plasma, sc, 150 nmol/kg
[8] = male, CD-1, mouse, plasma, 350 nmol/kg
[9] = male Cynomolgus monkeys, single 50 nmol/kg s.c., individual animal
[10] = male, cynomolgus monkey, plasma, sc, 50 nmol/kg
[11] = male, CD-1, mouse, plasma, 386 nmol/kg
[12] = male Cynomolgus monkeys, single 96.4 nmol/kg s.c., individual animal
[13] = male, cynomolgus monkey, plasma, sc, 96.4 nmol/kg

CL/F [1, 4]: 0.125 mL/min/kg and 0.122 mL/min/kg | T1/2 [1, 4]: 14 h and 17 h | CL/F [1, 5]: 0.103 mL/min/kg and 0.107 mL/min/kg | AUC(0-inf) [1, 6]: 7.17 µM·h | Cmax [1, 6]: 163 nM | CL/F ([1]; male, Sprague Dawley, rat, plasma, sc, 50 nmol/kg, CL/F, male Sprague Dawley rats, single 50 nmol/kg s.c., Mean): 0.117 mL/min/kg | CL/F ([1]; male, Sprague Dawley, rat, plasma, sc, 50 nmol/kg, CL/F, male Sprague Dawley rats, single 50 nmol/kg s.c., individual animal): 0.103 mL/min/kg | half-life ([1]; male, Sprague Dawley, rat, plasma, sc, 50 nmol/kg, single 50 nmol/kg s.c., Mean): 16 h | half-life ([1]; male, Sprague Dawley, rat, plasma, sc, 50 nmol/kg, single 50 nmol/kg s.c., individual animal): 16 h | Tmax ([1]; male, Sprague Dawley, rat, plasma, sc, 50 nmol/kg, male Sprague Dawley rats, single 50 nmol/kg s.c., Mean): 20 h | Tmax ([1]; male, Sprague Dawley, rat, plasma, sc, 50 nmol/kg, male Sprague Dawley rats, single 50 nmol/kg s.c., individual animal): 12 h | AUC(0-inf) [1, 7]: 24.4 µM·h | Cmax [1, 7]: 499 nM | CL/F ([1]; male, Sprague Dawley, rat, plasma, sc, 150 nmol/kg, CL/F, male Sprague Dawley rats, single 150 nmol/kg s.c., Mean): 0.1 mL/min/kg | CL/F ([1]; male, Sprague Dawley, rat, plasma, sc, 150 nmol/kg, CL/F, male Sprague Dawley rats, single 150 nmol/kg s.c., individual animal): 0.1 mL/min/kg | half-life ([1]; male, Sprague Dawley, rat, plasma, sc, 150 nmol/kg, single 150 nmol/kg s.c., Mean): 16 h | half-life ([1]; male, Sprague Dawley, rat, plasma, sc, 150 nmol/kg, single 150 nmol/kg s.c., individual animal): 16 h | Tmax ([1]; male, Sprague Dawley, rat, plasma, sc, 150 nmol/kg, male Sprague Dawley rats, single 150 nmol/kg s.c., Mean): 24 h | Tmax ([1]; male, Sprague Dawley, rat, plasma, sc, 150 nmol/kg, male Sprague Dawley rats, single 150 nmol/kg s.c., individual animal): 24 h | EC50 (human CRHR1): > 100 µM | AUC(0-inf) [2, 8]: 35.5 µM·h | CL/F [2, 8]: 0.165 mL/min/kg | Cmax [2, 8]: 1340 nM | Tmax [2, 8]: 12 h | half-life [2, 8]: 14 h | AUC(0-inf) [3, 9]: 69.88 µM·h and 58.414 µM·h | CL/F [3, 9]: 0.0143 mL/min/kg | Cmax [3, 9]: 441 nM and 432 nM | T1/2 [3, 9]: 70 h | AUC(0-inf) [3, 10]: 64.1 µM·h | Cmax [3, 10]: 437 nM | CL/F ([3]; male, cynomolgus monkey, plasma, sc, 50 nmol/kg, CL/F, male Cynomolgus monkeys, single 50 nmol/kg s.c., Mean): 0.0132 mL/min/kg | CL/F ([3]; male, cynomolgus monkey, plasma, sc, 50 nmol/kg, CL/F, male Cynomolgus monkeys, single 50 nmol/kg s.c., individual animal): 0.012 mL/min/kg | half-life ([3]; male, cynomolgus monkey, plasma, sc, 50 nmol/kg, single 50 nmol/kg s.c., Mean): 85 h | half-life ([3]; male, cynomolgus monkey, plasma, sc, 50 nmol/kg, single 50 nmol/kg s.c., individual animal): 101 h | Tmax ([3]; male, cynomolgus monkey, plasma, sc, 50 nmol/kg, Tmax, male Cynomolgus monkeys, single 50 nmol/kg s.c., Mean): 36 h | Tmax ([3]; male, cynomolgus monkey, plasma, sc, 50 nmol/kg, Tmax, male Cynomolgus monkeys, single 50 nmol/kg s.c., individual animal): 48 h
Compound: CC[C@H](C)[C@H](NC)C(=O)N[C@H](C(=O)N[C@@H](CC(C)C)C(=O)N[C@@H](CO)C(=O)N[C@@H](CC(C)C)C(=O)N[C@@H](CC(=O)O)C(=O)N[C@H](C(=O)N1CCC[C@H]1C(=O)N[C@H](C(=O)NCC(=O)N[C@@H](CC(C)C)C(=O)N[C@@H](CC(C)C)C(=O)N[C@@H](CCC(N)=O)C(=O)N[C@H](C(=O)N[C@@H](CC(C)C)C(=O)N[C@@H](CC(C)C)C(=O)N[C@@H](CCC(=O)O)C(=O)N[C@@H](CCC(N)=O)C(=O)N[C@@H](CCC(=O)O)C(=O)N[C@@H](CCCCN)C(=O)N[C@@H](CCC(N)=O)C(=O)N[C@@H](CCC(=O)O)C(=O)N[C@@H](CCCCN)C(=O)N[C@@H](CCC(=O)O)C(=O)N[C@@H](CCCCN)C(=O)N[C@@H](CCC(N)=O)C(=O)N[C@@H](CCC(N)=O)C(=O)N[C@@H](C)C(=O)N[C@@H](CCCCNC(=O)COCCOCCNC(=O)COCCOCCNC(=O)CC[C@H](NC(=O)CC[C@H](NC(=O)CCCCCCCCCCCCCCCCC(=O)O)C(=O)O)C(=O)O)C(=O)N[C@H](C(=O)N[C@@H](CC(N)=O)C(=O)N[C@@H](C)C(=O)N[C@@H](CCC(N)=O)C(=O)N[C@H](C(=O)N[C@@H](CC(C)C)C(=O)N[C@@H](C)C(=O)N[C@@H](CCC(N)=O)C(=O)N[C@H](C(N)=O)C(C)C)[C@@H](C)CC)[C@@H](C)O)[C@@H](C)CC)[C@@H](C)CC)C(C)C)C(C)C [Example 3] (H-[NMeI]VLSLDVPIGLLQILLEQEKQEKEKQQAK([AEEA-AEEA-γGlu-γGlu-C18 diacid])TNAQILAQV-NH2)
Cmax [1, 4]: 188 nM and 160 nM and 141 nM | Cmax [1, 5]: 531 nM and 496 nM and 470 nM

Compound: CC[C@H](C)[C@H](NC(C)=O)C(=O)N[C@H](C(=O)N[C@@H](CC(C)C)C(=O)N[C@@H](CO)C(=O)N[C@@H](CC(C)C)C(=O)N[C@@H](CC(=O)O)C(=O)N[C@H](C(=O)N1CCC[C@H]1C(=O)N[C@H](C(=O)NCC(=O)N[C@@H](CC(C)C)C(=O)N[C@@H](CC(C)C)C(=O)N[C@@H](CCC(N)=O)C(=O)N[C@H](C(=O)N[C@@H](CC(C)C)C(=O)N[C@@H](CC(C)C)C(=O)N[C@@H](CCC(=O)O)C(=O)N[C@@H](CCC(N)=O)C(=O)N[C@@H](CCC(=O)O)C(=O)N[C@@H](CCCCN)C(=O)N[C@@H](CCC(N)=O)C(=O)N[C@@H](CCC(=O)O)C(=O)N[C@@H](CCCCN)C(=O)N[C@@H](CCC(=O)O)C(=O)N[C@@H](CCCCN)C(=O)N[C@@H](CCC(N)=O)C(=O)N[C@@H](CCC(N)=O)C(=O)N[C@@H](C)C(=O)N[C@@H](CCCCNC(=O)COCCOCCNC(=O)COCCOCCNC(=O)CC[C@H](NC(=O)CC[C@H](NC(=O)CCCCCCCCCCCCCCCCCCC(=O)O)C(=O)O)C(=O)O)C(=O)N[C@H](C(=O)N[C@@H](CC(N)=O)C(=O)N[C@@H](C)C(=O)N[C@@H](CCC(N)=O)C(=O)N[C@H](C(=O)N[C@@H](CC(C)C)C(=O)N[C@@H](C)C(=O)N[C@@H](CCC(N)=O)C(=O)N[C@H](C(N)=O)C(C)C)[C@@H](C)CC)[C@@H](C)O)[C@@H](C)CC)[C@@H](C)CC)C(C)C)C(C)C [Example 2] (Ac-IVLSLDVPIGLLQILLEQEKQEKEKQQAK([AEEA-AEEA-γGlu-γGlu-C20 diacid])TNAQILAQV-NH2)
AUC(0-inf) [1, 7]: 32.3 µM·h | Cmax [1, 7]: 429 nM | Tmax ([1]; rat, in vivo, sc, 150 nmol/kg, male Sprague Dawley rats, single 150 nmol/kg s.c., Mean): 24 h | Tmax ([1]; rat, in vivo, sc, 150 nmol/kg, male Sprague Dawley rats, single 150 nmol/kg s.c., individual animal): 24 h | EC50 (human CRHR1): > 10 µM | AUC(0-inf) [2, 11]: 46.5 µM·h | Cmax [2, 11]: 1150 nM | Tmax ([2]; mouse, in vivo, 386 nmol/kg): 12 h | Tmax ([3]; cynomolgus monkey, in vivo, sc, 96.4 nmol/kg, Tmax, male Cynomolgus monkeys, single 96.4 nmol/kg s.c., Mean): 36 h | Tmax ([3]; cynomolgus monkey, in vivo, sc, 96.4 nmol/kg, Tmax, male Cynomolgus monkeys, single 96.4 nmol/kg s.c., individual animal): 24 h | AUC(0-inf) [3, 12]: 237.954 µM·h and 245.711 µM·h | Cmax [3, 12]: 1238 nM and 1699 nM | Tmax [3, 12]: 48 h | AUC(0-inf) [3, 13]: 242 µM·h | Cmax [3, 13]: 1470 nM
